PMC4101055 (Antiviral research, 2014)
Entries after “also recorded” stand apart in the source; their conditions may differ. Blank lines part the entries; values can stand above or below the compound they belong to.

Experiments:
[1] = target: recombinant genotype D HBV RNaseH (Hepatitis B virus genotype D subtype ayw, UniProt P03156); assay: Oligonucleotide-directed RNA cleavage assay, HBV genotype D RNaseH; assay type: biochemical; details: for activity against the HBV RNaseH (in words): genotype D and C enzymes, up to 60 µM
genotype C HBV RNaseH = genotype C HBV RNaseH (Hepatitis B virus, UniProt P12933); assay: Oligonucleotide-directed RNA cleavage assay, HBV genotype C RNaseH; assay type: biochemical; details: read-out: Genotype C IC50; average ± SD, three or four independent assays
[2] = system: HBV genotype D replication in HepDES19 cells; assay: HBV replication assay in HepDES19 cells; assay type: cell-based, Hepatitis B virus; details: same samples as the EC50 assay
E. coli RNaseH = E. coli RNaseH (Escherichia coli, UniProt P0A7Y4); assay: Oligonucleotide-directed cleavage assay with E. coli RNaseH; assay type: biochemical; details: identical conditions to the HBV RNaseH assay
HepDES19 cells = assay: MTT cytotoxicity assay; assay type: cell-based, human; details: read-out: Cytotoxicity CC50, MTT, 3 days treatment
HIV RNaseH = details: read-out: IC50 against the HIV RNaseH; ref Billamboz et al., 2011b; cited from earlier work
HBV replication = details: read-out: EC50 against HBV replication; ref Hu et al., 2013; cited from earlier work

Chain of recombinant genotype D HBV RNaseH (P03156 671-832): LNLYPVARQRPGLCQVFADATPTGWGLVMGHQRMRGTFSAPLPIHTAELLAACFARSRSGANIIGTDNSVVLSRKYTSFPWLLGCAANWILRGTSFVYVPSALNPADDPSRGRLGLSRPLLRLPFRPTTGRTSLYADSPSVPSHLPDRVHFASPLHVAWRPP
Chain of E. coli RNaseH (P0A7Y4 whole entry): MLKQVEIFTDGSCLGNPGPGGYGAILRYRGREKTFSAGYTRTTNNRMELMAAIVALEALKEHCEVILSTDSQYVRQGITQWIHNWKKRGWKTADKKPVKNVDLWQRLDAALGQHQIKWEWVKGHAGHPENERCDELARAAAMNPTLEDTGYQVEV
Chain of genotype C HBV RNaseH (P12933 682-843): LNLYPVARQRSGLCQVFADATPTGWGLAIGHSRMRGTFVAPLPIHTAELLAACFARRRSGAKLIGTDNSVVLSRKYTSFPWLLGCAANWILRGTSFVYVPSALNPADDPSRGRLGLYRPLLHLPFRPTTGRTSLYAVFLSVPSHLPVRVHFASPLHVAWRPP

activity against the HBV RNaseH (in words) [1]: inactivity
SMILES: O=C1CCC(=O)N1O [Compound 139]

activity against the HBV RNaseH (in words) [1]: inactivity
SMILES: O=C1c2ccccc2C(=O)N1O [Compound 138]

SMILES: O=C1Cc2ccccc2C(=O)N1O [Compound 1, 2-hydroxyisoquinoline-1,3(2H,4H)-dione]
IC50 (genotype C HBV RNaseH): 30.4 ± 12.9 µM
Accumulation of minus-polarity HBV DNA strand [2]: not suppressed
IC50 [1]: 28.1 ± 9.7 µM
Effect on E. coli RNaseH activity (E. coli RNaseH): not affected; also recorded: inactive
CC50 (HepDES19 cells): 74.7 ± 24 µM

SMILES: COC(=O)C1C(=O)N(O)C(=O)c2ccccc21 (stereo not shown) [Compound 81, 2-hydroxy-4-methoxycarbonylisoquinoline-1,3(2H,4H)-dione]
IC50 (HIV RNaseH): 0.061 µM
activity against the HBV RNaseH (in words) [1]: negligible activity

SMILES: CC(C)c1ccc(O)c(=O)c(O)c1 [Compound 46, β-thujaplicinol]
EC50 (HBV replication): ~5 µM
